Measured values: patent US10898504B2, “Substituted nucleoside analogues for use as PRMT5 inhibitors” (Janssen Pharmaceutica NV, priority 2016, dated 2021)
Where “and” joins values, the source holds several entries; their conditions need not be identical. Equal entries are not always repeated.

Experiments:
[1] = system: A549 cells; experiment: PD assay (Assay 2): inhibition of nuclear symmetric Arginine dimethylation (SYM10 immunohistochemistry) in A549 cells; assay type: cell-based; details: individual measurements shown; for IC50: Homo sapiens, A549, PD assay in A549 cells, read-out: pIC50 Assay 2 (converted); for pIC50 Assay 2: PD assay in A549 cells
Description: EXPERIMENTAL PROCEDURE PD ASSAY (ASSAY 2)
A549 cells (ATCC, Cat #CCL-185) were cultured in Dulbecco's Modified Eagle's Medium (DMEM) (Sigma, Cat #D5796), supplemented with 10% Fetal Calf Serum (FCS)(HyClone™, Cat #SV30160.03), 100 mM Sodium Pyruvate (Sigma, Cat #S8636), 200 mM L-Glutamine (Sigma, Cat #G7513) and 50 mg/mL Gentamycing (Gibco, Cat #15750-037).
Reagents used for buffers were purchased: Dulbecco's phosphate buffered saline (DPBS) without Ca/Mg (Sigma, Cat #D8537), phosphate buffered saline (PBS) 10× (Roche, Cat #11 666 789 001), Formalin solution 10% (Sigma, HT50-1-128-4L), MeOH 100% (Sigma, Cat #32213-2.5L), Triton X-100 (Acros, Cat #215680010), Bovine Serum Albumin (BSA) (Sigma, Cat #A2153), Alexa fluor 488 goat anti-rabbit antibody (Life Technologies, Cat #A11034), HCS CellMask Deep Red Stain (Life Technologies, Cat #H32721), Hoechst Stain (Life Technologies, Cat #33258), Anti-dimethyl-Arginine, sym (SYM10) antibody (Millipore, 07-412).
Immunohistochemistry Procedure
Cells were plated at 400 cells/40 μL/well in 384 well black plates μclear bottom (Perkin Elmer) and overnight incubated at 37° C., 5% CO2. The IC50 Studies were performed using nine point dosing series ranging from 10 μM to […] for each compound. 80 nL of the respective dilution of the compounds was added using the Labcyte POD 810 (Labcyte) reaching a final DMSO concentration of 0.2% in cell culture. After an incubation period of 48 h at 37° C. and 5% CO2, cells were fixed in 10% formalin solution for 15 min at r.t. and 20 min in ice-cold MeOH, after which they were washed 3× in DPBS. Subsequently, the cells were blocked for 1 h in blocking buffer (PBS+1% BSA and 0.5% Triton X-100) and incubated overnight at 4° C. with the SYM10 antibody diluted 1/2000 in blocking buffer. The cells were washed 3× with washing buffer (PBS+0.1% Triton X-100) and incubated with the Alexa fluor 488 goat anti-rabbit antibody diluted 1/200 in blocking buffer for 1 h at r.t. Subsequently, they were washed 3× with washing buffer and incubated for 30 min at r.t. with PBS containing a 1/5000 dilution of Hoechst Stain and a 1/5000 dilution of the HCS CellMask Deep Red Stain. After a final wash with PBS, the plates were imaged using the 10×W lens of the Opera® system (Perkin Elmer Life Sciences) using following settings (values in nm):
In the above equations, the following variable names are use: […]
In the above equations, the following controls were used for normalization: […]
Low control: minimum level of symmetrically dimethylated Arginines (cells treated with reference compound at 10 μM).
High control: maximum level of symmetrically dimethylated Arginines (DMSO treated cells).
IC50 and pIC50 (−log IC50) values were calculated using the appropriate software.
pIC50 values (Co. No. means compound number; n.d. means not determined).

[2] = target: T1, PRMT5-MEP50 enzyme (Homo sapiens, UniProt O14744); experiment: In vitro assay (Assay 1): PRMT5-MEP50 high throughput mass spectrometer assay, inhibition of SAH formation; assay type: biochemical; details: individual measurements shown, read-out: pIC50 Assay 1 (converted)
T1 construct: One virus expresses full length human PRMT5 with Flag-tag at N-terminus
Excerpt: EXPERIMENTAL PROCEDURES IN VITRO ASSAY (ASSAY 1)
PRMT5-MEP50 enzyme was purchased from Charles River (Argenta). The enzyme complex was produced in insect cells (Sf9) infected simultaneously with two baculoviruses. One virus expresses full length human PRMT5 with Flag-tag at N-terminus, the second virus expresses full length MEP50 with His6-TEV cleavage at N-terminus. The protein was affinity purified using anti-Flag (M2) beads eluted with 3×FLAG peptide, followed by His-Select eluted with 0.5M imidazole. Eluted protein was then dialysed against tris-buffered saline (TBS) (pH 8.0) containing 20% glycerol and 3 mM dithiothreitol (DTT).
Full-length untagged human recombinant histone H2A (residues 1-130, Genbank Accession #NM_021052, MW=14.1 kDa) expressed in E. coli was purchased from Reaction Biology Corporation, Cat #HMT-11-146. Reagents used for making reaction buffer or stopping reaction were purchased including Tris base (Sigma Cat #T-1503), NaCl (Sigma Cat #RGF-3270), MgCl2 (Sigma Cat #M0250), DTT (Invitrogen Cat #15508-013) and Formic Acid (Riedel deHaen, Cat #33015)
High Throughput Mass Spectrometer Assay
PRMT5 catalyzes the sequential methylations of the terminal nitrogen atoms on the guanidine groups of arginine residues within proteins using co-substrate S-adenosyl-L-methionine (AdoMet, SAM), forming mono-methyl (MMA), symmetric-dimethyl arginine (sDMA) and S-adenosyl-L-homocysteine (AdoHcy, SAH). The enzyme activity was determined by following the product SAH formation using high throughput mass spectrometry (Agilent Rapidfire 300 System coupled to a Sciex 4000 series QTrapm triple-quad MS/MS). The reaction buffer was 20 mM Tris-HC, pH 8.5, 50 mM NaCl, 5 mM MgCl2 and 1 mM DTT. The reaction activity was stopped using 1% formic acid (final concentration).
The IC50 Studies were performed using eleven point dosing series made for each compound by serially diluted 1:2 in dimethyl sulfoxide (DMSO), with point 12 being a DMSO control. Compounds were first spotted to plates, and followed by addition of 2 μM SAM and 0.6 μM H2A (histone H2A) solution mixture. The same volume of enzyme solution was added to initiate the enzymatic reactions. The final concentrations of the reaction are at 1 μM SAM, 0.3 μM H2A and 10 nM enzyme. The reaction was incubated at 30° C. for 60 minutes (min) and then quenched by addition of formic acid to a final concentration of 1%. The inhibitions of SAH formation in the presence of compounds were calculated as a percentage of the control relative to the uninhibited reaction as a function of inhibitor concentration. The data were fit as follows: Y=Bottom+(Top−Bottom)/(1+10^((log IC50−X)*h))
where IC50 is the inhibitor concentration (same unit as X) at 50% inhibition and h is the Hill slope. Y is percent of inhibition, X is log of compound concentration. Bottom and Top are the plateaus in same units as Y.

T1 sequence (O14744 whole entry): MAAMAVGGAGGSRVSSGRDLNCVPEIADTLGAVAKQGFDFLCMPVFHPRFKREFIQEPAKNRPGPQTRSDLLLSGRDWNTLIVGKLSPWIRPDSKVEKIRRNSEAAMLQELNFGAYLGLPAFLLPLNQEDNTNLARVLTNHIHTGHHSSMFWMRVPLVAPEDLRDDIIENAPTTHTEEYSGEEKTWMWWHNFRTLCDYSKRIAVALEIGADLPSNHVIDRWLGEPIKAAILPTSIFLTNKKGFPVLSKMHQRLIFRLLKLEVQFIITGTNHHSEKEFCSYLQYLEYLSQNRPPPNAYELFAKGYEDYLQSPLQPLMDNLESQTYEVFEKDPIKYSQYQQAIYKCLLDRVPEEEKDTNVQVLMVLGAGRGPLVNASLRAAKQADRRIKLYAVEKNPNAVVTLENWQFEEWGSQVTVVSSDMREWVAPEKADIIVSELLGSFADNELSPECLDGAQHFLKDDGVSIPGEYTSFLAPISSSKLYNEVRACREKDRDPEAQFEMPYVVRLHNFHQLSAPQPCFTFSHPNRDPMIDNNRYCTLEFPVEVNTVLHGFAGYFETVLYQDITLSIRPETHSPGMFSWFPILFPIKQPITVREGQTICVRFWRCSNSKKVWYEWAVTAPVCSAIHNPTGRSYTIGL
T1 sequence (Q9BQA1 whole entry partner): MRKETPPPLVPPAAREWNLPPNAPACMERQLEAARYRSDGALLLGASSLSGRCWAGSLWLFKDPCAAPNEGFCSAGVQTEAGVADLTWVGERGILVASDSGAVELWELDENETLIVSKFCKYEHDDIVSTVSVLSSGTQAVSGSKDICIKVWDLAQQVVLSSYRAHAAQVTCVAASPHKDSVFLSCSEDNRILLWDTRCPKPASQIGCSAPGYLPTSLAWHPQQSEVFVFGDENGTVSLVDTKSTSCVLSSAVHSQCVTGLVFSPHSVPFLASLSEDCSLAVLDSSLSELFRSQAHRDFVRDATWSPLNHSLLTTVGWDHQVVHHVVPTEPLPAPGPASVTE

| Compound | IC50 [1] | IC50 [2] | pIC50 Assay 2 [1] |
| --- | --- | --- | --- |
| Nc1ncnc2c1ccn2[C@@H]1O[C@H](CN2CCCC3(CNCCO3)C2)[C@@H](O)[C@H]1O (single isomer, unassigned) [Compound 33] | 12000 nM | 240 nM |  |
| Nc1ncnc2c1ccn2[C@@H]1O[C@H](CN2CCCC3(CNCCO3)C2)[C@@H](O)[C@H]1O (single isomer, unassigned) [Compound 34] |  | 3980 nM | <4.7 |
| Nc1ncnc2c1ccn2[C@@H]1O[C@H](CN2CCCC3(CCCCN3)C2)[C@@H](O)[C@H]1O (single isomer, unassigned) [Compound 35] | ~6170 nM | 105 nM |  |
| Nc1ncnc2c1ccn2[C@@H]1O[C@H](CN2CCCC3(CCCN3)C2)[C@@H](O)[C@H]1O (single isomer, unassigned) [Compound 39] | 11200 nM | 67.6 nM |  |
| Nc1ncnc2c1ccn2[C@@H]1O[C@H](CN2CCOCC23CCNC3)[C@@H](O)[C@H]1O (single isomer, unassigned) [Compound 110] | > 10000 nM | 1230 nM |  |
| Nc1ncnc2c1ccn2[C@@H]1O[C@H](CN2CCOCC23CCNC3)[C@@H](O)[C@H]1O (single isomer, unassigned) [Compound 111] |  | 174 nM | ~5.26 |
| Nc1ncnc2c1ccn2[C@@H]1O[C@H](CN2CCCC23CCCNCC3)[C@@H](O)[C@H]1O (single isomer, unassigned) [Compound 117] | 501 nM | 33.9 nM |  |
| Nc1ncnc2c1ccn2[C@@H]1O[C@H](CN2CCCC23CCCNCC3)[C@@H](O)[C@H]1O (single isomer, unassigned) [Compound 118] |  | 35.5 nM | 6.29 |
| Nc1ncnc2c1ccn2[C@@H]1O[C@H](CN2CCCC23CCCNC3)[C@@H](O)[C@H]1O (single isomer, unassigned) [Compound 119] |  | 155 nM | ~5.97 |
| CN1CCC2(CCN2C[C@H]2O[C@@H](n3cnc4c(N)ncnc43)[C@H](O)[C@@H]2O)C1 (stereo partly shown) [Compound 3] | > 10000 nM | 1660 nM |  |
| CN1CCC12CCN(C[C@H]1O[C@@H](n3cnc4c(N)ncnc43)[C@H](O)[C@@H]1O)C2 (stereo partly shown) [Compound 4] | > 10000 nM | 2290 nM |  |
| CN1CCC2(C1)CN(C[C@H]1O[C@@H](n3cnc4c(N)ncnc43)[C@H](O)[C@@H]1O)C2 [Compound 6] |  | > 100000 nM |  |
| CN1CC2(CCCN(C[C@H]3O[C@@H](n4cnc5c(N)ncnc54)[C@H](O)[C@@H]3O)C2)C1 [Compound 8] | 1510 nM | 155 nM |  |
| CN1CCC2(CCCN2C[C@H]2O[C@@H](n3cnc4c(N)ncnc43)[C@H](O)[C@@H]2O)C1 (stereo partly shown) [Compound 13] | > 10000 nM | 955 nM |  |
| CN1CCC2(CCN(C[C@H]3O[C@@H](n4cnc5c(N)ncnc54)[C@H](O)[C@@H]3O)C2)C1 (stereo partly shown) [Compound 14] | > 10000 nM | 977 nM |  |
| CN1CCCC12CCN(C[C@H]1O[C@@H](n3cnc4c(N)ncnc43)[C@H](O)[C@@H]1O)C2 (stereo partly shown) [Compound 15] | > 10000 nM | 29500 nM |  |
| CN1CCC12CN(C[C@H]1O[C@@H](n3cnc4c(N)ncnc43)[C@H](O)[C@@H]1O)C2 [Compound 17] |  | > 100000 nM |  |
| CC(C)C(=O)O[C@@H]1[C@H](OC(=O)C(C)C)[C@@H](CN2CC(F)(F)CC23CCN(C)CC3)O[C@H]1n1ccc2c(N)ncnc21 [Compound 101] |  |  | 7.06 and 7.08 |
| Nc1ncnc2c1ccn2[C@@H]1O[C@H](CN2CCCC2(CN2CCCC2)C(F)(F)F)[C@@H](O)[C@H]1O (stereo partly shown) [Compound 189] |  | > 10000 nM |  |

Second part, the compound after the results:

| IC50 [1] | IC50 [2] | pIC50 Assay 2 [1] | Compound |
| --- | --- | --- | --- |
|  | 1910 nM | ~5.13 | Nc1ncnc2c1ccn2[C@@H]1O[C@H](CN2CCCC3(CCCCN3)C2)[C@@H](O)[C@H]1O (single isomer, unassigned) [Compound 36] |
| ~1660 nM | 23.4 nM |  | Nc1ncnc2c1ccn2[C@@H]1O[C@H](CN2C(C(F)(F)F)CCC23CCNCC3)[C@@H](O)[C@H]1O (single isomer, unassigned) [Compound 115] |
|  | 151 nM | 5.53 | Nc1ncnc2c1ccn2[C@@H]1O[C@H](CN2C(C(F)(F)F)CCC23CCNCC3)[C@@H](O)[C@H]1O (single isomer, unassigned) [Compound 116] |
|  | 2290 nM | <5 | Nc1ncnc2c1ccn2[C@@H]1O[C@H](CN2CCCC23CCCNC3)[C@@H](O)[C@H]1O (single isomer, unassigned) [Compound 120] |
| 7240 nM | 219 nM |  | CN1CCC2(CCCN2C[C@H]2O[C@@H](n3cnc4c(N)ncnc43)[C@H](O)[C@@H]2O)CC1 [Compound 1] |
| > 10000 nM | 776 nM |  | CN1CC2(CCCN2C[C@H]2O[C@@H](n3cnc4c(N)ncnc43)[C@H](O)[C@@H]2O)C1 [Compound 2] |
| > 10000 nM | 8130 nM |  | CN1CC2(CCN(C[C@H]3O[C@@H](n4cnc5c(N)ncnc54)[C@H](O)[C@@H]3O)C2)C1 [Compound 5] |
| > 10000 nM | 66100 nM |  | CN1CCCC12CN(C[C@H]1O[C@@H](n3cnc4c(N)ncnc43)[C@H](O)[C@@H]1O)C2 [Compound 7] |
| > 10000 nM | 776 nM |  | CN1CCC2(CC1)CCN2C[C@H]1O[C@@H](n2cnc3c(N)ncnc32)[C@H](O)[C@@H]1O [Compound 9] |
| > 10000 nM | 38900 nM and 24500 nM |  | CN1CCCCC12CN(C[C@H]1O[C@@H](n3cnc4c(N)ncnc43)[C@H](O)[C@@H]1O)C2 [Compound 10] |
| > 10000 nM | 12300 nM |  | CN1CC2(CCCCN2C[C@H]2O[C@@H](n3cnc4c(N)ncnc43)[C@H](O)[C@@H]2O)C1 [Compound 11] |
| > 10000 nM | 67600 nM |  | CN1CCCC2(C1)CN(C[C@H]1O[C@@H](n3cnc4c(N)ncnc43)[C@H](O)[C@@H]1O)C2 [Compound 12] |
